# Reference: PubChem BioAssay (NCI)
#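 96-well plates; 48 h exposure; 5 concentrations. Endpoints by linear interpolation between flanking doses. Not reached: highest tested concentration assigned. Definition used: TGI = concentration required for complete inhibition of growth.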
# What was measured:
# Assay in all cases: NCI anticancer screen, dose series, 48 h
# 786-0 renal = test system: 786-0 renal
# A498 renal = test system: A498 renal
# A549 NSCLC = test system: A549 NSCLC
# ACHN renal = test system: ACHN renal
# BT-549 breast = test system: BT-549 breast
# CAKI-1 renal = test system: CAKI-1 renal
# CCRF-CEM leukemia = test system: CCRF-CEM leukemia
# COLO 205 colon = test system: COLO 205 colon
# DU-145 prostate = test system: DU-145 prostate
# EKVX NSCLC = test system: EKVX NSCLC
# HCC-2998 colon = test system: HCC-2998 colon
# HCT-116 colon = test system: HCT-116 colon
# HCT-15 colon = test system: HCT-15 colon
# HL-60(TB) leukemia = test system: HL-60(TB) leukemia
# HOP-62 NSCLC = test system: HOP-62 NSCLC
# HS 578T breast = test system: HS 578T breast
# HT29 colon = test system: HT29 colon
# IGROV1 ovarian = test system: IGROV1 ovarian
# K-562 leukemia = test system: K-562 leukemia
# KM12 colon = test system: KM12 colon
# LOX IMVI melanoma = test system: LOX IMVI melanoma
# M14 melanoma = test system: M14 melanoma
# MALME-3M melanoma = test system: MALME-3M melanoma
# MCF7 breast = test system: MCF7 breast
# MDA-MB-231 breast = test system: MDA-MB-231 breast
# MDA-MB-435 = test system: MDA-MB-435
# MOLT-4 leukemia = test system: MOLT-4 leukemia
# NCI-H226 lung = test system: NCI-H226 lung
# NCI-H23 lung = test system: NCI-H23 lung
# NCI-H460 lung = test system: NCI-H460 lung
# NCI-H522 lung = test system: NCI-H522 lung
# NCI/ADR-RES ovarian = test system: NCI/ADR-RES ovarian
# OVCAR-3 ovarian = test system: OVCAR-3 ovarian
# OVCAR-4 ovarian = test system: OVCAR-4 ovarian
# OVCAR-5 ovarian = test system: OVCAR-5 ovarian
# OVCAR-8 ovarian = test system: OVCAR-8 ovarian
# PC-3 prostate = test system: PC-3 prostate
# RPMI-8226 leukemia = test system: RPMI-8226 leukemia
# RXF 393 renal = test system: RXF 393 renal
# SF-268 CNS = test system: SF-268 CNS
# SF-295 CNS = test system: SF-295 CNS
# SF-539 CNS = test system: SF-539 CNS
# SK-MEL-2 melanoma = test system: SK-MEL-2 melanoma
# SK-MEL-28 melanoma = test system: SK-MEL-28 melanoma
# SK-MEL-5 melanoma = test system: SK-MEL-5 melanoma
# SK-OV-3 ovarian = test system: SK-OV-3 ovarian
# SN12C renal = test system: SN12C renal
# SNB-19 CNS = test system: SNB-19 CNS
# SW-620 colon = test system: SW-620 colon
# T-47D breast = test system: T-47D breast
# TK-10 renal = test system: TK-10 renal
# U251 CNS = test system: U251 CNS
# UACC-257 melanoma = test system: UACC-257 melanoma
# UACC-62 melanoma = test system: UACC-62 melanoma
# UO-31 renal = test system: UO-31 renal
# HOP-92 NSCLC = test system: HOP-92 NSCLC
# SR leukemia = test system: SR leukemia
smiles,measurement,setting,value
Cc1ccc(O)cc1 (tested in a mixture with another compound),TGI,786-0 renal,> 100 µM
same,TGI,A498 renal,> 100 µM
same,TGI,A549 NSCLC,> 100 µM
same,TGI,ACHN renal,> 100 µM
same,TGI,BT-549 breast,> 100 µM
same,TGI,CAKI-1 renal,> 100 µM
same,TGI,CCRF-CEM leukemia,> 100 µM
same,TGI,COLO 205 colon,> 100 µM
same,TGI,DU-145 prostate,> 100 µM
same,TGI,EKVX NSCLC,> 100 µM
same,TGI,HCC-2998 colon,> 100 µM
same,TGI,HCT-116 colon,> 100 µM
same,TGI,HCT-15 colon,> 100 µM
same,TGI,HL-60(TB) leukemia,> 100 µM
same,TGI,HOP-62 NSCLC,> 100 µM
same,TGI,HS 578T breast,> 100 µM
same,TGI,HT29 colon,> 100 µM
same,TGI,IGROV1 ovarian,> 100 µM
same,TGI,K-562 leukemia,> 100 µM
same,TGI,KM12 colon,> 100 µM
same,TGI,LOX IMVI melanoma,> 100 µM
same,TGI,M14 melanoma,> 100 µM
same,TGI,MALME-3M melanoma,> 100 µM
same,TGI,MCF7 breast,> 100 µM
same,TGI,MDA-MB-231 breast,> 100 µM
same,TGI,MDA-MB-435,> 100 µM
same,TGI,MOLT-4 leukemia,> 100 µM
same,TGI,NCI-H226 lung,> 100 µM
same,TGI,NCI-H23 lung,> 100 µM
same,TGI,NCI-H460 lung,> 100 µM
same,TGI,NCI-H522 lung,> 100 µM
same,TGI,NCI/ADR-RES ovarian,> 100 µM
same,TGI,OVCAR-3 ovarian,> 100 µM
same,TGI,OVCAR-4 ovarian,> 100 µM
same,TGI,OVCAR-5 ovarian,> 100 µM
same,TGI,OVCAR-8 ovarian,> 100 µM
same,TGI,PC-3 prostate,> 100 µM
same,TGI,RPMI-8226 leukemia,> 100 µM
same,TGI,RXF 393 renal,> 100 µM
same,TGI,SF-268 CNS,> 100 µM
same,TGI,SF-295 CNS,> 100 µM
same,TGI,SF-539 CNS,> 100 µM
same,TGI,SK-MEL-2 melanoma,> 100 µM
same,TGI,SK-MEL-28 melanoma,> 100 µM
same,TGI,SK-MEL-5 melanoma,> 100 µM
same,TGI,SK-OV-3 ovarian,> 100 µM
same,TGI,SN12C renal,> 100 µM
same,TGI,SNB-19 CNS,> 100 µM
same,TGI,SW-620 colon,> 100 µM
same,TGI,T-47D breast,> 100 µM
same,TGI,TK-10 renal,> 100 µM
same,TGI,U251 CNS,> 100 µM
same,TGI,UACC-257 melanoma,> 100 µM
same,TGI,UACC-62 melanoma,> 100 µM
same,TGI,UO-31 renal,> 100 µM
CN(C)CCOc1ccc2[nH]c(C(=O)N3CC(CCl)c4ccc(N)cc43)cc2c1 (stereo not given),TGI,786-0 renal,5.48 µM
same,TGI,A549 NSCLC,> 40.3 µM
same,TGI,ACHN renal,1.07 µM
same,TGI,BT-549 breast,0.612 µM
same,TGI,CAKI-1 renal,> 100 µM
same,TGI,CCRF-CEM leukemia,0.975 µM
same,TGI,EKVX NSCLC,5.92 µM
same,TGI,HCC-2998 colon,0.823 µM
same,TGI,HCT-116 colon,12.9 µM
same,TGI,HCT-15 colon,20.7 µM
same,TGI,HOP-62 NSCLC,0.69 µM
same,TGI,HOP-92 NSCLC,4.18 µM
same,TGI,IGROV1 ovarian,> 67.6 µM
same,TGI,K-562 leukemia,> 100 µM
same,TGI,KM12 colon,0.294 µM
same,TGI,M14 melanoma,1.39 µM
same,TGI,MOLT-4 leukemia,0.0565 µM
same,TGI,NCI-H23 lung,0.341 µM
same,TGI,NCI-H522 lung,0.0683 µM
same,TGI,OVCAR-3 ovarian,0.653 µM
same,TGI,OVCAR-4 ovarian,0.46 µM
same,TGI,OVCAR-5 ovarian,18.2 µM
same,TGI,OVCAR-8 ovarian,> 35.8 µM
same,TGI,RPMI-8226 leukemia,1.14 µM
same,TGI,SF-268 CNS,1.01 µM
same,TGI,SF-539 CNS,> 100 µM
same,TGI,SK-MEL-28 melanoma,3.21 µM
same,TGI,SK-MEL-5 melanoma,0.261 µM
same,TGI,SK-OV-3 ovarian,> 100 µM
same,TGI,SN12C renal,> 22.3 µM
same,TGI,SNB-19 CNS,21.8 µM
same,TGI,SR leukemia,> 100 µM
same,TGI,SW-620 colon,> 100 µM
same,TGI,T-47D breast,> 100 µM
same,TGI,UO-31 renal,> 40.7 µM
